Measurements as given in US6908915B1, “Tricyclic compounds and their uses as antiarrhythmic antifibrillatory and defibrillatory agents” (Technion Research & Development Foundation Ltd., priority 2000, dated 2005).

Test system: artificially induced SVF
Experiment: Transformation of electrically induced SVF to TVF in anesthetized cats (antiarrhythmic defibrillating activity)
Type: in vivo
Conditions: intravenous, VF type examined before and 2 to 3 min after drug; for Relative activity in dosage of 1 mg/kg: monohydrochloride
Protocol: 10,11-dihydro-5-[(3-N-alkyl)1-oxopropyl] 5-H-dibenzo[b,f]azepin monohydrochloride, 10,11-dihydro-5-[N-? isopropylamino-2propanol)] 5-H-dibenzo [b,f]azepin monohydrochloride and 11-Oxo-10,11-dihydro-5-[(N-alkyl)1-oxopropyl]-5-H-dibenzo [b,e] [1,4] diazepin hydrochloride were synthesized as is described hereinabove and tested for their effectiveness in transforming SVF to TVF, as described herein. […] The experimental method was as follows.
Hydrochloride salts of the compounds were dissolved in saline. Activity of each compound was tested in cats of both sexes. Cats were anesthetized with 15-25 mg/kg intravenous sodium, pentobarbital. The tested compounds were injected intravenously (1-3 mg/kg). The heart of each experimental subject was exposed through midline thoracotomy, and a room air respirator was applied through a tracheal cannula. Lead II electrocardiogram and intra-arterial blood pressure was recorded on a Grass Polygraph (Grass Instrument Co., Quincy, Mass., USA).
Fibrillating stimuli (a train of rectangular pulses of 2 to 15 V, 100 pulses/sec and duration of 0.1 to 1.0 msec, for a period of 1 sec) were delivered through two silver needle electrodes attached to the pericardium on the left ventricle. Fibrillating stimuli were one and a half to twice the strength of the fibrillating threshold.
VF was induced before and after drug administration, according to a previously described procedure. The type of VF was examined before and 2 to 3 min after drug treatment. Each cat served as its own control. In some experiments, a β-adrenergic blocker (propranolol, 0.1-0.6 mg/kg) was administered after drug administration, in order to evaluate the neutralizing effect of the blocker on the compound-induced catecholamine levels. Table l below presents the results.

Row | Compound | Relative activity in dosage of 1 mg/kg [%] | Relative activity in dosage of 2 mg/kg [%]
1 | CC(C)NCC(O)CN1c2ccccc2CCc2ccccc21.Cl (stereo not drawn) [Compound 25bi] | 100 | 100
2 | CC(C)NCC(O)CN1c2ccccc2CCc2ccccc21.Cl (stereo not drawn) [Compound 25bir] | 50 | 100
3 | CC(C)NCC(O)CN1c2ccccc2CCc2ccccc21.Cl (stereo not drawn) [Compound 25bis] | 100 | 100
